From patent US20260356814A1, “INDOLINE DERIVATIVES AS SEROTONERGIC AGENTS USEFUL FOR THE TREATMENT OF DISORDERS RELATED THERETO” (MINDSET PHARMA INC., priority 2022, published 2026) come the findings set out here.

The target of assay [1] is T1, human 5-HT2A (h5-HT2A) receptor (Homo sapiens, UniProt P28223).
T1 construct: expressed in transfected cells; host or cells: HEK293 (HTR2A&Ga15-HEK293, tetracycline-induced)
Briefly: FLIPR assay: human 5-HT2A (agonist mode). The class given is cell-based. The following applies: for RFU@10 μM: @10 μM (head), footnote: curve fitting with activation (%) @ 10 mM with RFU, RFU=Fmax−Fmin; for pEC50: FLIPR calcium, agonist mode, HTR2A&Gα15-HEK293 cells, ND: not detected. The protocol:
Assessment of the effect of exemplary compounds of Formula I targeting on human 5-HT2A (h5-HT2A) receptor under agonist mode.
HTR2A&Ga15-HEK293 cells were cultured in DMEM medium containing 10% dialyzed FBS and 1x penicillin-streptomycin, 100 μg/mL Hygromycin B and 300 μg/mL G418. The cells were passaged about three times a week, maintained between ~30% to ~90% confluence.
• 1. The cell culture medium (DMEM medium containing 10% dialyzed FBS and 1× penicillin-streptomycin, 100 μg/mL Hygromycin B and 300 μg/mL G418), TrypLE™ Express and DPBS to R.T. was warmed in advance. • 2. For induction, 1 μg/ml tetracycline (final concentration) was added to cell culture medium and incubated for 48 hours prior to seeding cells into plate at 37° C., 5% (v/v) CO2. The cell culture medium was removed from flask. Cells were washed with DPBS. • 3. 2 mL TrypLE™ Express was added to the flask, mixed well by gentle shaking and cells were incubated at 37° C. for a few minutes. • The cells were checked for morphological change under microscope, the digestion was stopped by adding 4 mL cell culture medium to the flask when most of cells turned to round. • 5. The cell suspension was transferred into a 15 mL centrifuge tube, and then centrifuged at 1,200 rpm for 5 minutes. • 6. The supernatant was removed. The cell pellet was resuspended with 2 mL cell culture medium. • 7. The cell density was counted using cell counter. Only cells with >85% viability were used for the assay. • 8. Cells were diluted to 6.67×10^5/mL with cell culture medium. • 9. 30 μL/well cell suspensions added into a 384-well cell plate (The cell density was 20,000 cells/well). • 10. The cell plate was incubated overnight at 37° C., 5% (v/v) CO2. 2.3 Cell handling • 1. On the day of experiments, culture medium was removed from the cell plate. • 2. 10 μL of assay buffer (20 mM HEPES, in 1×HBSS, pH 7.4) was added to each well of the cell plate. • 3. 2×dye solution was prepared following the manual of the FLIPR® Calcium 6 Assay Kit: • i. The dye was diluted with assay buffer. • ii. Probenecid was added to the final concentration of 5 mM. • iii. Vortexed vigorously for 1-2 minutes. • 4. 10 μL of 2× dye solution was added to each well of the cell plate • 5. The cell plate was placed on plate shaker, followed by shaking at 600 rpm for 2 minutes. • 6. The plate was incubated at 37° C. for 2 hours followed by an additional 15-minute incubation at 25° C. 2.4 Prepare 3×compound • 1. Serotonin HCl was prepared to the concentration of 10 mM with DMSO. • 2. The test compounds were prepared to the concentration of 10 mM with DMSO. • 3. The compounds were added to a 384-well compound source plate. • 4. 3-folds serial dilutions were performed with DMSO. • 5. 90 nL/well of serial diluted compounds was transferred from source plate to a 384-well compound plate by using an Echo. • 6. 30 μL/well of assay buffer (20 mM HEPES in 1x HBSS, pH 7.4) was added to the compound plate. • 7. The plate was mixed on-plate shaker for 2 minutes.
• 1. After the cells were incubated with dye solution, the cell plate, compound plate containing 3×compounds and FLIPR tips were placed into FLIPR. • 2. 10 μL of 3×compounds transferred from the compound plate to the cell plate by FLIPR. • 3. The plate was read for 160 sec with 1 sec interval and the data of agonist mode was obtained.
• 1. The normalized fluorescence reading (RFU) was calculated as shown below, wherein Fmax and Fmin stand for maximum and minimum of calcium signal during defined time window:
RFU=Fmax−Fmin • 2. EC50 by fitting RFU against log of compound concentrations with Hill equation was calculated using XLfit.
The following procedure can also be followed: • 1. Cells are cultured in cell culture medium (DMEM containing 10% FBS, 1× penicillin-streptomycin 300 μg/ml G418 and 100 μg/ml hygromycin B) at 37° C., 5% (v/V) CO2. • 2. One day before the assays, the cells are detached using TrypLE™ Express and cells are counted using cell counter.

In a further assay the target is human 5-HT2A receptor (Homo sapiens, UniProt P28223). Briefly: Human 5-HT2A: Radioligand binding assay ([3H]-ketanserin). Conditions: [3H]-ketanserin displacement, 27° C., 90 min, pH 7.4; read-out: h5-HT2A, IC50. The protocol: Exemplary compounds of Formula I were evaluated functionally using FLIPR assay for their effect on h5-HT2A receptor under agonist mode. The objective of this study was to evaluate the binding properties of exemplary compounds of Formula I on 5-hydroxytryptamine receptor 2A (5-HT2A). • Human 5-HT2A: Radioligand binding assay:
• i. The assay buffer was prepared following the table below.
• Adjust pH to 7.4 followed by […] sterile filtration • ii. 8 doses of reference and test compounds starting from 10 mM stock solution as required was prepared by 5-fold serial dilutions with 100% (v/v) DMSO. • iii. UniFilter-96 GF/B plate was pretreated: • a. 50 μl/well of 0.5% (v/v) PEI was added to UniFilter-96 […] plates. The plates were sealed and incubated at 4° C. for 3 hrs. • b. After incubation, the plates were washed 3 times with ice-cold wash buffer (50 mM Tris, pH7.4). • iv. The assay plate was prepared: • a. Cell membrane was diluted with assay buffer and 330 μl/well was added to 96 round deep well plates to reach a concentration of 20 μg/well. • b. 8 concentrations of reference or test compounds were prepared and 110 μl/well was added to 96 round deep well plates. • c. [3H]-ketanserin was diluted with assay buffer to 5 nM (5X final concentration) and 110 μl/well was added to 96 round deep well plates. • v. The plate was centrifuged at 1000 rpm for 30 secs and then agitated at 600 rpm, R.T. for 5 min. • vi. The plates were sealed and the plate incubated at 27° C. for 90 min. • vii. The incubation was stopped by vacuum filtration onto GF/B filter plates followed by 4 times washing with ice-cold wash buffer (50 mM Tris, pH7.4). • viii. The plates were dried at 37° C. for 45 min. • ix. The filter plates were sealed and 40 μl/well of scintillation cocktail was added. • x. The plate was read by using a Microbeta2 microplate counter.
• 1. For reference and test compounds, the results were expressed as % Inhibition, using the normalization equation: N=100−100×(U−C2)/(C1-C2), where U is the unknown value, C1 is the average of high controls, and C2 is the average of low controls. • 2. The IC50 was determined by fitting percentage of inhibition as a function of compound concentrations with Hill equation using XLfit.

pEC50, pIC50: −log10 of the molar value. Some results are limits rather than exact numbers.

Sequence of human 5-HT2A receptor (P28223 whole entry): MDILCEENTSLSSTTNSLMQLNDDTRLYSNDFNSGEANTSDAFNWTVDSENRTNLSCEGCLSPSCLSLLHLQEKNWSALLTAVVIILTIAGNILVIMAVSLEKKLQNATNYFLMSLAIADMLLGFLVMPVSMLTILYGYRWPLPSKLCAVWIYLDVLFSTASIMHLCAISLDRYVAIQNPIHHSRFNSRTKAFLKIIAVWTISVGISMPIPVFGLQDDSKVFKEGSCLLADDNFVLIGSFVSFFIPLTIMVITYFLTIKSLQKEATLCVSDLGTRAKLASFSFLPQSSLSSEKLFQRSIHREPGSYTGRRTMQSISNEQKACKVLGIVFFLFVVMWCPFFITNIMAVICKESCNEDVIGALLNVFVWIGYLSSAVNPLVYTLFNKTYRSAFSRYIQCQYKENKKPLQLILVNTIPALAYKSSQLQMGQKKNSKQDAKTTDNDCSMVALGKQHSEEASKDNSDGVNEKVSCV
T1 sequence (P28223 whole entry): as above

Regarding `[2H]C([2H])([2H])N1CCC[C@@H]1C([2H])([2H])N1CCc2ccccc21` [(R)-I-1, (R)-1-((1-(Methyl-d3)pyrrolidin-2-yl)methyl-d2) indoline], in assay [1], the “RFU@10 μM” value was 386 RFU and the pEC50 (as a rule, the EC50 on a negative log10 scale, so that one unit is a factor of ten) was 5.45. The negative logarithm of the IC50 (pIC50) (in general, the IC50 on a negative log10 scale, so that one unit is a factor of ten) on human 5-HT2A receptor is 5.34.
`[2H]C([2H])([2H])N(CCN1CCc2ccc(OC)cc21)C([2H])([2H])[2H]` [Compound I-70, 2-(6-Methoxyindolin-1-yl)-N, N-bis(methyl-d3) ethan-1-amine]: the “RFU@10 μM” value in assay [1] came out at 303 RFU. Also, at human 5-HT2A receptor, the negative logarithm of the IC50 (pIC50) was 4.59.
On to `[2H]C([2H])([2H])N1CCC[C@@H]1C([2H])([2H])N1CCc2ccc(OC)cc21` [(R)-I-57, (R)-6-Methoxy-1-((1-(methyl-d3)pyrrolidin-2-yl)methyl-d2) indoline], for which, in assay [1], the “RFU@10 μM” value is 749 RFU and the pEC50 is 6.37. Further, the negative-log IC50 (pIC50) at human 5-HT2A receptor was 5.10.
For `COc1cccc2c1N(C[C@H]1CCCN1C)CC2` [(R)-I-46, (R)-7-Methoxy-1-((1-methylpyrrolidin-2-yl)methyl) indoline], in assay [1], the “RFU@10 μM” value was 487 RFU and the pEC50 is 5.94. Besides, the negative-log IC50 (pIC50) at human 5-HT2A receptor was 5.61.
With `[2H]C([2H])([2H])N(CCN1CCc2ccccc21)C([2H])([2H])[2H]` [Compound I-71, 2-(Indolin-1-yl)-N,N-bis(methyl-d3) ethan-1-amine], in assay [1], the “RFU@10 μM” value was determined as 280 RFU. Besides, the pIC50 on human 5-HT2A receptor is 4.82.
On the same counts, the results for `COc1cccc2c1CCN2C[C@H]1CCCN1C` [(R)-I-47, (R)-4-Methoxy-1-((1-methylpyrrolidin-2-yl)methyl) indoline] are 174 RFU and less than 4.52.
The like results for `COc1cc2c(cc1OC)N(C[C@H]1CCCN1C)CC2` [(R)-I-34, (R)-5,6-dimethoxy-1-((1-methylpyrrolidin-2-yl)methyl) indoline] were, in that order, 268 RFU and less than 4.52.
In the case of `COc1ccc2c(c1)N(C[C@H]1CCCN1)CC2` [(R)-I-59, (R)-6-Methoxy-1-(pyrrolidin-2-ylmethyl) indoline], in assay [1], the “RFU@10 μM” value was determined as 801 RFU and the pEC50 was 5.92. Besides, the pIC50 on human 5-HT2A receptor is 4.82.
On the same counts, the results for `[2H]C([2H])([2H])Oc1ccc2c(c1)N(C([2H])([2H])[C@H]1CCCN1C([2H])([2H])[2H])CC2` [(R)-I-28, (R)-6-(Methoxy-d3)-1-((1-(methyl-d3)pyrrolidin-2-yl)methyl-d2) indoline] are 3744 RFU, 5.96 and 5.07.
With `COc1ccc2c(c1)N(C[C@H]1CCCN1C)CC2` [(R)-I-58, (R)-6-Methoxy-1-((1-methylpyrrolidin-2-yl)methyl) indoline], in assay [1], the “RFU@10 μM” value turned out to be 796 RFU and the pEC50 is 6.49. In addition, at human 5-HT2A receptor, the pIC50 is 5.19.
